Format in all cases: in vivo, rat
Experiment [1] has as its system EphB1. Description: Western blot of EphB1 and its phosphorylation in spinal cord of TCI rats. As to conditions: for Increased levels of EphB1: exogenous MMP, no EphB2-Fc. The procedure:
(§1) Protein precipitation procedures in conjunction with Western blots were employed to identify temporal expression of EphB1, ephrinB2 protein and their phosphorylation. Protocols were similar to those described previously (Liu W T, et al., FASEB J 2009; 23:90-8; Liu W T, et al., J Neurosci 2010; 30:7613-23). EphB1 and ephrinB2 were immunoprecipitated from 2 mg total protein/int tissue lysate using an anti-EphB1 antibody (2 μg; Santa Cruz Technology, SCT) complex with protine G-agarose (Invitrogen) and wheat germ agglutinin (WGA) linked to agarose (Sigma), respectively. EphrinB2 and its phosphorylation were detected using anti-ephrinB2 (C20, SCT) and anti-phosphotyrosine antibody PY99 (SCT), respectively (Georgakopoulos A, et al., EMBO J 2006; 25:1242-52). EphB1 and its phosphorylation were detected using anti-EphB1 antibody (Q20, SCT) and phosphotyrosine antibody 4G 10 (Upstate Biotechnology), respectively (Compagni A, et al., Dev Cell 2003; 5:217-30). NR2A immunoprecipitation was performed using anti-NR2A antibody followed by adsorption to protein G-agarose. Whole cell protein extracts lysates were used to identify temporal expression of the phosphorylated protein levels of NR1(pNR1), NR2B(pNR2B), Src(pSrc), ERK(pERK), CaMKII(pCaMKII), CREB(pCREB) and GAPDH. The primary antibodies were used include pNR1(Ser897), 1:800 (Millipore); pNR2B(Tyr1472), 1:300 (Chemicon); pSrc(Tyr418), 1:800 (Abeam, Cambridge, UK); pERK1/2(Thr202/Tyr204), 1:500; pCaMKII(Thr286), 1:1000 (Cell Signaling Technology); GAPDH, 1:1000 (Sigma); GFAP and pCREB (Ser133)(SCT). The filters were then developed using ECL reagents (Perkinelmer) with secondary antibodies (Chemicon). Data was analyzed with a Molecular Imager (Gel Doc™ XR, 170-8170) and the associated software Quantity One-4.6.5 (Bio-Rad Laboratories).
(In western blotting, separated proteins are transferred to a membrane and probed.)

Experiment [2] concerns EphB1. The experiment is described as follows: Western blot of EphB1 and pEphB1 in spinal cord of naive rats. The note with it: for Activation (phosphorylation) of EphB1 / Expression of EphB1 protein: exogenous MMP, no EphB2-Fc. The procedure: as §1
Experiment [3] can be described thus: Morphine analgesia on thermal hyperalgesia in TCI rats. The procedure:
Tumor cells were extracted from ascitic fluid of rats that received Walker-256 rat mammary gland carcinoma cells. Tumor cells implantation (TCI) was mimicked by injecting the cells (1×10^5 cells/μl, 5 μl) into the intra-medullary space of the right tibia to induce bone cancer in rats (Medhurst S J, et al., Pain 2002; 96:129-40).
Thermal hyperalgesia was determined by the significant shortened latency of foot withdrawal in response to heat stimulation. Mechanical allodynia was indicated by a significant decrease in the threshold of paw withdrawal to mechanical indentation of the plantar surface of each hindpaw. The protocols were similar to those described previously (Song X J, et al., J Neurophysiol 2006; 95:479-92; Wang Z B, et al., Pain 2005; 114:266-77).

In experiment [4] the test system is EphB1. Description: Western blot of EphB1 after acute or chronic morphine treatment. The procedure: as §1

Entries after “also recorded” stand apart in the source; their conditions may differ. Peptide text beside a SMILES is read from it.

Take `CC(C)C[C@@H](NC(=O)[C@@H]1CCCN1C(=O)CNC(=O)c1ccc(N)cc1)C(=O)N[C@H](C)C(=O)NO` [FN439] (HELM PEPTIDE1{[Nc1ccc(C(=O)[*:2])cc1].G.P.[dL].[dA].[ON[*:1]]}$$$$V2.0): the “EphB2-Fc-induced downregulation of EphB1” value in the experiment with EphB1 [1] (MMP2i 10 μg or FN439 100 μg) and in the experiment on EphB1 [2] (MMP2i 10 μg or FN439 100 μg) was “reversed; also recorded: completely prevented” throughout. In addition, the “TCI-induced upregulation of EphB1, without EphB2-Fc treatment” value in the experiment with EphB1 [1] (blocking MMP-2 or MMP-9) is reported as “inhibited”. Moreover, in the experiment on EphB1 [2] (blocking MMP-2 or MMP-9), the “EphB1 level, without EphB2-Fc treatment” value is on record as “keeping EphB1 at its physiological levels”.

Regarding `CN1CC[C@]23c4c5ccc(O)c4O[C@H]2[C@@H](O)C=C[C@H]3[C@H]1C5` [morphine], the Thermal hyperalgesia result in experiment [3] (morphine 10 mg/kg s.c. twice a day) is “significantly suppressed”. In experiment [3] (repeated morphine 10 mg/kg s.c. twice a day), the “Time after which the analgesic effect decreased and disappeared (tolerance)” value lay in the range of 6 to 7 days. Moreover, the “Expression of EphB1 and its phosphorylation” value was “significantly increased” in the experiment on EphB1 [4] (acute morphine treatment (100 mg/kg, then 10 mg/kg at 24 h)); “upregulates” in the experiment with EphB1 [4] (acute morphine treatment (100 mg/kg, then 10 mg/kg at 24 h), listed as Mor); “significantly increased” in the experiment with EphB1 [4] (chronic morphine treatment (10 mg/kg)).

On to “MMP-9: exogenous matrix metalloproteinase-9 administered to rats”, for which, in the experiment with EphB1 [1], the “Increased levels of EphB1” value was “did not significantly alter”. In the experiment with EphB1 [2], the “Activation (phosphorylation) of EphB1” value is given as “an increase rather than a decline” and the “Expression of EphB1 protein” value is “without altering”.

B1: MMP-2: exogenous matrix metalloproteinase-2 administered to rats (protein, UniProt P33436 110-662, looked up)
72 kDa type IV collagenase: YNFFPRKPKWDKNQITYRIIGYTPDLDPETVDDAFARALKVWSDVTPLRFSRIHDGEADIMINFGRWEHGDGYPFDGKDGLLAHAFAPGTGVGGDSHFDDDELWTLGEGQVVRVKYGNADGEYCKFPFLFNGREYSSCTDTGRSDGFLWCSTTYNFEKDGKYGFCPHEALFTMGGNGDGQPCKFPFRFQGTSYNSCTTEGRTDGYRWCGTTEDYDRDKKYGFCPETAMSTVGGNSEGAPCVFPFTFLGNKYESCTSAGRSDGKVWCATTTNYDDDRKWGFCPDQGYSLFLVAAHEFGHAMGLEHSQDPGALMAPIYTYTKNFRLSNDDIKGIQELYGPSPDADTDTGTGPTPTLGPVTPEICKQDIVFDGIAQIRGEIFFFKDRFIWRTVTPRDKPTGPLLVATFWPELPEKIDAVYEAPQEEKAVFFAGNEYWVYSASTLERGYPKPLTSLGLPPDVQQVDAAFNWSKNKKTYIFSGDKFWRYNEVKKKMDPGFPKLIADSWNAIPDNLDAVVDLQGGGHSYFFKGAYYLKLENQSLKSVKFGSIKSDWLGC
Regarding B1, the “Increased levels of EphB1” value in the experiment with EphB1 [1] is “did not significantly alter”. Further, in the experiment on EphB1 [2], the “Activation (phosphorylation) of EphB1” value is given as “an increase rather than a decline” and the “Expression of EphB1 protein” value is on record as “without altering”.
